Tests used:
Assay in all cases: KINOMEscan Max
Format in all cases: binding
DLK = molecular target: T1, DLK (Homo sapiens, UniProt Q12852); conditions: 1 μM
T1 construct: DNA tag (qPCR read-out)
Outline: (§1)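 Competition binding assay: test compound competes with an immobilized, active-site directed ligand for DNA-tagged kinase. Kinase captured on the ligand is quantified by qPCR of the DNA tag.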

[1] = molecular target: T2, RSK4(Kin.Dom.1-N-terminal) (Homo sapiens, UniProt Q9UK32); conditions: 1 μM
T2 construct: RSK4(Kin.Dom.1-N-terminal); DNA tag (qPCR read-out)
Outline: as §1

MST1 = MST1 (Homo sapiens, UniProt Q13043); conditions: 1 μM
Outline: as §1

FLT3(D835Y) = molecular target: T3, FLT3(D835Y) (Homo sapiens, UniProt P36888, D835Y)
T3 construct: DNA tag (qPCR read-out); purchased Ambit Kinomescan
Outline: as §1

SIK2 = molecular target: T4, SIK2 (Homo sapiens, UniProt Q9H0K1)
T4 construct: DNA tag (qPCR read-out)
T4 sequence (Q9H0K1 whole entry): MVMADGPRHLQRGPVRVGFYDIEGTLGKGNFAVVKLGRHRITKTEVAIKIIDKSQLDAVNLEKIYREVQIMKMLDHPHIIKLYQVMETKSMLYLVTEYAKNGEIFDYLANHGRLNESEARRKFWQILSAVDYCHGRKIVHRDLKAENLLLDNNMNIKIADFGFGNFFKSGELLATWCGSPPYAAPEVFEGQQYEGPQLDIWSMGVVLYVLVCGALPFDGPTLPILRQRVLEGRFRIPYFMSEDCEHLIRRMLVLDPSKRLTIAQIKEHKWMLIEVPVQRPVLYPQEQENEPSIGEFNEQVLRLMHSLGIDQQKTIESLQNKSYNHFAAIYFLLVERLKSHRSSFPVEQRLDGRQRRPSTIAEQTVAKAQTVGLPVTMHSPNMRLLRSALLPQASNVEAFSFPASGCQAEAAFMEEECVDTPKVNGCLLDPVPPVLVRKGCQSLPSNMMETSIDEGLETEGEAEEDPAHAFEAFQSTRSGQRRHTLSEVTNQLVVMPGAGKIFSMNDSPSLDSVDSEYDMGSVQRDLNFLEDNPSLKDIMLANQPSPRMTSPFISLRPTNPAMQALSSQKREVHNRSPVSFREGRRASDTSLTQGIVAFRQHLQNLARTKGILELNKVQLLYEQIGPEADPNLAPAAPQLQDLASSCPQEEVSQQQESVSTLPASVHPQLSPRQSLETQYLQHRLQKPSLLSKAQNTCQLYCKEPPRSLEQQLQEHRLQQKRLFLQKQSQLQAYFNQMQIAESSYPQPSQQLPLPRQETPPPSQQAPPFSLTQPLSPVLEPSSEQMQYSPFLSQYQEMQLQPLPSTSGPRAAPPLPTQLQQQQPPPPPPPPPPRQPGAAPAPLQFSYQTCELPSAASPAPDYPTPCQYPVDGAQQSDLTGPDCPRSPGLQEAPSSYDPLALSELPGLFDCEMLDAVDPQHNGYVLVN
Outline: as §1

PRKX = molecular target: T5, PRKX (Homo sapiens, UniProt P51817)
T5 construct: DNA tag (qPCR read-out)
T5 sequence (P51817 whole entry): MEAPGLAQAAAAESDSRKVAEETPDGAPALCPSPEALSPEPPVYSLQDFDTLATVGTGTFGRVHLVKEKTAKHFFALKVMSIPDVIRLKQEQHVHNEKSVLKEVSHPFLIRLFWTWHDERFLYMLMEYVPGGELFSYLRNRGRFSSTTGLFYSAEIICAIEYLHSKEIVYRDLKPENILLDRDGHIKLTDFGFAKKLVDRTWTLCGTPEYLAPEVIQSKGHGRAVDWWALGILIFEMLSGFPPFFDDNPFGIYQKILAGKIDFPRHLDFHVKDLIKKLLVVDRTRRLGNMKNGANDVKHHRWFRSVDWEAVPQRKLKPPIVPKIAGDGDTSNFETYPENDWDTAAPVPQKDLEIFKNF
Outline: as §1

MAPKAPK2 = molecular target: T6, MAPKAPK2 (Homo sapiens, UniProt P49137)
T6 construct: purchased Ambit Kinomescan (contract panel)
T6 sequence (P49137 whole entry): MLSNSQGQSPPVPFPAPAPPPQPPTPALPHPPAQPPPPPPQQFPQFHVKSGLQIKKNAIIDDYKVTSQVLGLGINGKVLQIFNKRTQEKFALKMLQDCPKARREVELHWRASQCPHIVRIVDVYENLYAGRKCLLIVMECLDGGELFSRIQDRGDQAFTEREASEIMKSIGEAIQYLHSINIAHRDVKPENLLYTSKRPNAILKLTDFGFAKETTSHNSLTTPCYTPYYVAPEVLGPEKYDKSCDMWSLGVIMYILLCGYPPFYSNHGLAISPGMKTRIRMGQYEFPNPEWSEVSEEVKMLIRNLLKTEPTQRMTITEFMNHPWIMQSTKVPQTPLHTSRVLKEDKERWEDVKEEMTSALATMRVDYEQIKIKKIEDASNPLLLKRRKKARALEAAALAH
Outline: as §1

DCAMKL3 = molecular target: T7, DCAMKL3 (Homo sapiens, UniProt Q9C098)
T7 construct: purchased Ambit (KINOMEscan Max panel service)
Outline: as §1

EPHA2 = EPHA2 (Homo sapiens, UniProt P29317)
Outline: as §1

MELK = molecular target: T8, MELK (Homo sapiens, UniProt Q14680)
T8 construct: purchased Ambit (KINOMEscan Max service)
Outline: as §1

AURKA = AURKA (Homo sapiens, UniProt O14965)
Outline: as §1

MET(M1250T) = molecular target: T9, MET(M1250T) (Homo sapiens, UniProt P08581, M1250T); conditions: 1 μM
T9 construct: DNA tag (qPCR read-out)
Outline: as §1

BMPR1A = molecular target: T10, BMPR1A (Homo sapiens, UniProt P36894)
T10 construct: DNA tag (qPCR label); purchased Ambit Kinomescan (contract screening)
T10 sequence (P36894 24-532): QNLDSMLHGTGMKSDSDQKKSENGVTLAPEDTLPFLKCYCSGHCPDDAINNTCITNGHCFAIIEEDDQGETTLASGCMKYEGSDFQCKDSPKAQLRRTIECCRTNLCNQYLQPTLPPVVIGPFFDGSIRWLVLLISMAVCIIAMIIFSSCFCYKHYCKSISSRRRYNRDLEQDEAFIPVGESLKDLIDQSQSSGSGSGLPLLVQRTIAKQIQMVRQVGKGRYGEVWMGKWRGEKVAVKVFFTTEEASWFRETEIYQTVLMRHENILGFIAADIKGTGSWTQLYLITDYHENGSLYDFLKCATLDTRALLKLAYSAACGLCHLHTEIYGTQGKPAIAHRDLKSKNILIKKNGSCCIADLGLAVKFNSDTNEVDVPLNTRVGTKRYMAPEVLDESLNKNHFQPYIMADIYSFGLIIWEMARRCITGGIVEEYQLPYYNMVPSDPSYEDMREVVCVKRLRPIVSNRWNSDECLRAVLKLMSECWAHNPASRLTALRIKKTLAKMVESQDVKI
Outline: as §1

FLT3(R834Q) = molecular target: T11, FLT3(R834Q) (Homo sapiens, UniProt P36888, R834Q)
T11 construct: purchased Ambit Kinomescan (contract panel, KINOMEscan Max)
Outline: as §1

YANK3 = YANK3 (Homo sapiens, UniProt Q86UX6)
Outline: as §1

QSK = molecular target: T12, QSK (Homo sapiens, UniProt Q9Y2K2); conditions: 1 μM
T12 construct: DNA tag (qPCR read-out)
Outline: as §1

[2] = molecular target: T13, RSK4(Kin.Dom.2-C-terminal) (Homo sapiens, UniProt Q9UK32); conditions: 1 μM
T13 construct: RSK4(Kin.Dom.2-C-terminal); DNA tag (qPCR read-out)
Outline: as §1

BRAF = molecular target: T14, BRAF (Homo sapiens, UniProt P15056)
T14 construct: DNA tag (qPCR label); purchased Ambit Kinomescan (contract screening)
Outline: as §1

NDR1 = NDR1 (Homo sapiens, UniProt Q15208)
Outline: as §1

SIK = molecular target: T15, SIK (Homo sapiens, UniProt P57059); conditions: 1 μM
T15 construct: DNA tag (qPCR read-out)
Outline: as §1

ZAP70 = molecular target: T16, ZAP70 (Homo sapiens, UniProt P43403)
T16 construct: purchased Ambit Kinomescan (contract screening service)
Outline: as §1

STK16 = molecular target: T17, STK16 (Homo sapiens, UniProt O75716)
T17 construct: DNA tag (qPCR read-out)
T17 sequence (O75716 whole entry): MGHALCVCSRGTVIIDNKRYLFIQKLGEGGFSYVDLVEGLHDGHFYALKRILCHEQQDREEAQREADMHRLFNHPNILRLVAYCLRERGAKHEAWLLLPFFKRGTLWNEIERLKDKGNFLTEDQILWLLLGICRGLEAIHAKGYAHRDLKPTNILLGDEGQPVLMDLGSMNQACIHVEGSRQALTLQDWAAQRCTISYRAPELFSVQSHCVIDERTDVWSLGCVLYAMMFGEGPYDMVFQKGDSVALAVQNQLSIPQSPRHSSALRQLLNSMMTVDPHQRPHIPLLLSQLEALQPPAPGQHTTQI
Outline: as §1

RIPK1 = molecular target: T18, RIPK1 (Homo sapiens, UniProt Q13546)
T18 construct: DNA tag (qPCR read-out)
Outline: as §1

[3] = molecular target: T19, ABL1(F317L)-nonphosphorylated (Homo sapiens, UniProt P00519, F317L)
T19 construct: purchased Ambit (KINOMEscan Max service)
T19 sequence (P00519 whole entry F317L): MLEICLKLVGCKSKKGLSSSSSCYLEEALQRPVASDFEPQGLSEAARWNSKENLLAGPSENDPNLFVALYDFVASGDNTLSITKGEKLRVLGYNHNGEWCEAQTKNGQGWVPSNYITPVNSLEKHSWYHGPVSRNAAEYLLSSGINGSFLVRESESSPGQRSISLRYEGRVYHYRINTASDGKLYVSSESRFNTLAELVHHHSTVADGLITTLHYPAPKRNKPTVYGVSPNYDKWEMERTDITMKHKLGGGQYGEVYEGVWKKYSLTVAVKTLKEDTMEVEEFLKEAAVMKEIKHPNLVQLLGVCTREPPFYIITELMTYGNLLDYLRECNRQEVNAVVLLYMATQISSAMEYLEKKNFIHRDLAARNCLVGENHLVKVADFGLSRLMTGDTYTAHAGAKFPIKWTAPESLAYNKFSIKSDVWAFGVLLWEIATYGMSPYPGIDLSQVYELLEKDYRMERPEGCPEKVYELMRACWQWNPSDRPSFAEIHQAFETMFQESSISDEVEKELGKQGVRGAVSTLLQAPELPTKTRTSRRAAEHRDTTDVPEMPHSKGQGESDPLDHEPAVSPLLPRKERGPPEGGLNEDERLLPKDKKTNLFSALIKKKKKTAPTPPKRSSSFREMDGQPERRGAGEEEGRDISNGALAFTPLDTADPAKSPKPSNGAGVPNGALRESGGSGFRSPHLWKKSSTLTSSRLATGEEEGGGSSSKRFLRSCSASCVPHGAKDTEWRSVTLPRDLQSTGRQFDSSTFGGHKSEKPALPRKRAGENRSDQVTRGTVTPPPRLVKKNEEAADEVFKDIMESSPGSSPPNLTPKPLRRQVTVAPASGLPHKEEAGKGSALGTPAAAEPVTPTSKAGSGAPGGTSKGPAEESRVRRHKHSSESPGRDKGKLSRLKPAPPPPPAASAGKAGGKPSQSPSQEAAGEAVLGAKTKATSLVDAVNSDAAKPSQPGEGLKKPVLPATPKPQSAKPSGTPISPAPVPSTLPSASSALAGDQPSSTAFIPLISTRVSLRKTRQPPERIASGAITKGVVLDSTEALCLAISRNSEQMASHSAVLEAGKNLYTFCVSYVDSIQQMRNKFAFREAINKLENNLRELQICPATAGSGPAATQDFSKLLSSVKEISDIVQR
Outline: as §1

JNK1 = molecular target: T20, JNK1 (Homo sapiens, UniProt P45983); conditions: 1 μM
T20 construct: purchased Ambit Kinomescan (contract panel)
T20 sequence (P45983 whole entry): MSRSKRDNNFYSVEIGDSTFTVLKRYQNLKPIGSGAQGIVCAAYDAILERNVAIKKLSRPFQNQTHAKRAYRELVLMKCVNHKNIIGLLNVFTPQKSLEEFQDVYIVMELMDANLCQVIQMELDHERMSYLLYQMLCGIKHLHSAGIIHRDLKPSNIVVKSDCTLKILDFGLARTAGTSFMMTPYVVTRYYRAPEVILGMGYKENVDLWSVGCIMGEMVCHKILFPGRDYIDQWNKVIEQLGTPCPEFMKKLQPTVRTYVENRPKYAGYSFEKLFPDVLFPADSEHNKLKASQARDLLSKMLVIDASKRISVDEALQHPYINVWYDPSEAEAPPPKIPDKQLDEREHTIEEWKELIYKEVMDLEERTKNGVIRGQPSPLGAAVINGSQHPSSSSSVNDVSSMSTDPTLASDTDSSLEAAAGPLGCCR
Outline: as §1

ULK1 = molecular target: T21, ULK1 (Homo sapiens, UniProt O75385); conditions: 1 μM
T21 construct: DNA tag (qPCR read-out)
Outline: as §1

EGFR(T790M) = molecular target: T22, EGFR(T790M) (Homo sapiens, UniProt P00533, T790M); conditions: 1 μM
T22 construct: purchased Ambit (KINOMEscan Max panel service)
Outline: as §1

BMX = molecular target: T23, BMX (Homo sapiens, UniProt P51813)
T23 construct: DNA tag (qPCR read-out)
T23 sequence (P51813 whole entry): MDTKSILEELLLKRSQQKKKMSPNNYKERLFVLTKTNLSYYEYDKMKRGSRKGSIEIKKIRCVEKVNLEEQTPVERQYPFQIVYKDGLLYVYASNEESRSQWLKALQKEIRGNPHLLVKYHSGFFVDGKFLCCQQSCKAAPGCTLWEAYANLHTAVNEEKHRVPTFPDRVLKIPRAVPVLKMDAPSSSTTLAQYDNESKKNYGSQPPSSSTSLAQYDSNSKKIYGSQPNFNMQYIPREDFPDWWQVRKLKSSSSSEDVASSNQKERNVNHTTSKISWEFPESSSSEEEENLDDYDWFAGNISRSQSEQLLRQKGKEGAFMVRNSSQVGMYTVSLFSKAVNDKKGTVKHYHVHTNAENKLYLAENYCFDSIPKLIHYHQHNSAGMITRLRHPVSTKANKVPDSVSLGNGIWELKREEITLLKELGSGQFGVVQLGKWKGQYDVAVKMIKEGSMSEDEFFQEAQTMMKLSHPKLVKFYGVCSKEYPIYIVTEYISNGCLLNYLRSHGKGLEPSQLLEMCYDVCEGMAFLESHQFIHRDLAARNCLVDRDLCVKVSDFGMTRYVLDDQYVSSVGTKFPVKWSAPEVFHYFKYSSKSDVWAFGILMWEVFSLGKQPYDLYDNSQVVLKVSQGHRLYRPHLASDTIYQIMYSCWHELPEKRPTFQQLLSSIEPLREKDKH
Outline: as §1

PIK3CA(C420R) = molecular target: T24, PIK3CA(C420R) (Homo sapiens, UniProt P42336, C420R)
T24 construct: DNA tag (qPCR read-out)
Outline: as §1

PRKCE = molecular target: T25, PRKCE (Homo sapiens, UniProt Q02156)
T25 construct: DNA tag (qPCR read-out); purchased Ambit Kinomescan
Outline: as §1

NIM1 = NIM1 (Homo sapiens, UniProt Q8IY84)
Outline: as §1

BRSK2 = molecular target: T26, BRSK2 (Homo sapiens, UniProt Q8IWQ3)
T26 construct: DNA tag (qPCR read-out)
Outline: as §1

[4] = molecular target: T27, JAK1(JH1domain-catalytic) (Homo sapiens, UniProt P23458); conditions: 1 μM
T27 construct: JAK1(JH1domain-catalytic); purchased Ambit (KINOMEscan Max service)
T27 sequence (P23458 875-1153 limits assumed): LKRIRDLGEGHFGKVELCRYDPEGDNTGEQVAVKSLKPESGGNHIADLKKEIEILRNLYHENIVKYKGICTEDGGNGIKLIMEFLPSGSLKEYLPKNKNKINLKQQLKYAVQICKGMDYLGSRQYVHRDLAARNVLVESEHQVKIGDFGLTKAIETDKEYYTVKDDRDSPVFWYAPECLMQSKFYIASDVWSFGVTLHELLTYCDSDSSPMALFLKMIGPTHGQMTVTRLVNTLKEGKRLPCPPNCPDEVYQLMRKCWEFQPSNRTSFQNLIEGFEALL
Outline: as §1

## NCCCNc1nc2c(Br)c(Br)c(Br)c(Br)c2[nH]1 [Compound 11, N-(3-aminopropyl)-4,5,6,7-tetrabromo-1H-benzo[d]imidazol-2-amine]
DLK
  % binding: 87%
[1]
  % binding: 100%
MST1
  % binding: 100%
FLT3(D835Y)
  remaining binding at 1 µM: 10%
SIK2
  remaining binding at 1 µM: 100%
PRKX
  remaining binding at 1 µM: 100%
MAPKAPK2
  remaining binding at 1 µM: 100%
DCAMKL3
  remaining binding at 1 µM: 100%
EPHA2
  remaining binding at 1 µM: 92%
MELK
  remaining binding at 1 µM: 82%
AURKA
  remaining binding at 1 µM: 96%
MET(M1250T)
  % binding: 56%
BMPR1A
  remaining binding at 1 µM: 100%
FLT3(R834Q)
  remaining binding at 1 µM: 100%
YANK3
  remaining binding at 1 µM: 93%
QSK
  % binding: 100%
[2]
  % binding: 100%
BRAF
  remaining binding at 1 µM: 100%
NDR1
  remaining binding at 1 µM: 100%
SIK
  % binding: 100%
ZAP70
  remaining binding at 1 µM: 100%
STK16
  remaining binding at 1 µM: 87%
RIPK1
  remaining binding at 1 µM: 100%
[3]
  remaining binding at 1 µM: 67%
JNK1
  % binding: 100%
ULK1
  % binding: 30%
EGFR(T790M)
  % binding: 100%
BMX
  remaining binding at 1 µM: 88%
PIK3CA(C420R)
  remaining binding at 1 µM: 100%
PRKCE
  remaining binding at 1 µM: 23%
NIM1
  remaining binding at 1 µM: 99%
BRSK2
  remaining binding at 1 µM: 91%
[4]
  % binding: 86%

— patent publication US20110230481A2, “DERIVATIVES OF TETRABROMOBENZIMIDAZOLE, A PROCESS FOR THE PREPARATION THEREOF, A PHARMACEUTICAL COMPOSITION COMPRISING THE SAME, A METHOD OF USING THE SAME, A METHOD FOR MODULATING OR REGULATING SERINE/THREONINE KINASES, AND SERINE/THREONINE KINASES MODULATING AGENT” (SELVITA S.A., priority 2009, published 2011)
